{"source": "patent US20230414599A1", "about": "“NICOTINAMIDE, NICOTINAMIDE PRECURSORS AND NICOTINAMIDE METABOLITES AND COMPOSITIONS THEREOF FOR REDUCING THE TIME TO RESOLUTION OF SYMPTOMS IN PATIENTS WITH COVID-19 AND OTHER VIRAL INFECTIONS” (CONARIS RESEARCH INSTITUTE AG, priority 2020, published 2023)", "test_system": "COVID-19", "assay": "Pilot phase of the COVit-1 dietary intervention trial (n = 16 outpatients)", "format": "in vivo", "key": {"[1]": {"details": "1,000 mg/day immediate-release, n = 8, up to 21 days after positive SARS-CoV-2 test"}, "[2]": {"details": "1,000 mg/day, n = 8, up to 21 days after positive test"}, "[3]": {"details": "only patients with symptoms persisting at week 4 queried, n = 3"}}}
{"smiles": "NC(=O)c1cccnc1", "note": "[Nicotinamide, nicotinamide]", "values": [{"measurement": "Proportion of subjects still suffering from at least one COVID-19 symptom at or before day 21 after first testing positive", "setting": "1,000 mg nicotinamide per day for 28 days, n = 8", "result": 50, "unit": "%"}, {"measurement": "Patients with anorexia/loss of appetite at week 2", "setting": "[1]", "result": 0}, {"measurement": "Patients with arthralgia at week 2", "setting": "[1]", "result": 0}, {"measurement": "Patients with chest pain at week 2", "setting": "[1]", "result": 0}, {"measurement": "Patients with cough at week 2", "setting": "[1]", "result": 2}, {"measurement": "Patients with diarrhoea at week 2", "setting": "[1]", "result": 1}, {"measurement": "Patients with dyspnoea/shortness of breath at week 2", "setting": "[1]", "result": 2}, {"measurement": "Patients with fatigue at week 2", "setting": "[1]", "result": 2}, {"measurement": "Patients with fever (total) at week 2", "setting": "[1]", "result": 1}, {"measurement": "Patients with fever <38° C. at week 2", "setting": "[1]", "result": 1}, {"measurement": "Patients with fever >38° C. at week 2", "setting": "[1]", "result": 1}, {"measurement": "Patients with headache at week 2", "setting": "[1]", "result": 1}, {"measurement": "Patients with impaired sense of smell at week 2", "setting": "[1]", "result": 1}, {"measurement": "Patients with impaired sense of taste at week 2", "setting": "[1]", "result": 1}, {"measurement": "Patients with myalgia at week 2", "setting": "[1]", "result": 0}, {"measurement": "Patients with reduced physical performance at week 2", "setting": "[1]", "result": 2}, {"measurement": "Patients with rhinorrhoea at week 2", "setting": "[1]", "result": 1}, {"measurement": "Patients with sore throat/pharyngalgia at week 2", "setting": "[1]", "result": 0}, {"measurement": "Patients with sputum production at week 2", "setting": "[1]", "result": 1}, {"measurement": "Patients with vomiting at week 2", "setting": "[1]", "result": 0}, {"measurement": "Patients requiring hospitalisation before week 2", "setting": "1,000 mg/day, n = 8", "result": "no patient"}, {"measurement": "Patients with persisting symptoms at week 4", "setting": "1,000 mg/day, n = 8", "result": 3}, {"measurement": "Symptom-free patients at week 4", "setting": "1,000 mg/day, n = 8", "result": 5}, {"measurement": "Patients with persisting symptoms at week 2", "setting": "[2]", "result": 4}, {"measurement": "Symptom-free patients at week 2", "setting": "[2]", "result": 4}, {"measurement": "Patients with persisting symptoms at week 6", "setting": "[3]", "result": 2}, {"measurement": "Symptom-free patients at week 6", "setting": "[3]", "result": 1}]}
